Series [1] concerns ICH rats. The experiment in a line: Short-term neurological function of ICH rats (Garcia score, beam balance test). The format is in vivo, rat. Conditions: ICH model; for Beam balance score / Garcia score: 24 hours after modeling. The protocol: Experimental grouping: At 2 h after endovascular perforation or collagenase VII injection, Zea Longa score was used to evaluate the neurological function of rats. Successful model rats were randomly divided into groups for administration.
All groups were administrated through the tail vein injection except for group N administrated intraperitoneally.
The rats were fasted for 12 hours before operation, and were anesthetized with 4% isoflurane, and kept anesthetized with 2% isoflurane. The animals were fixed in the prone position in a stereotaxic apparatus with the body temperature maintained at about 37° C. A traditional skin incision of the head was prepared along the midline. According to the stereotaxic atlas of the rat brain translated by Zhuge Qichao (George Paxinos, Charles Watson, Paxinos, Watson, & Zhuge Qichao. The Rat Brain in Stereotaxic Coordinates [M]. People's Medical Publishing House, 2005), the right caudate nucleus of the rat was determined as 0.0 mm anterior, 3.0 mm lateral to the bregma, and 5.5 mm ventral to the cortical surface. After labeling, we drilled an open window in the skull, and 1 μL of 0.5 U collagenase VII was slowly injected for 5 minutes with a microinjector. After the injection, the needle was stagnated for 8 minutes and slowly withdrawn. Then the scalp was sutured after the burr hole of skull was sealed with a sterile bone wax, and the rats were returned to the cage for normal feeding. The sham group conducted the same procedure as the model group, but received an equal volume of physiological saline into the caudate nucleus.
According to Zea Longa's neurological function score, the rats were scored 2 hours after the operation when they were awake from anesthesia. Successful model rats with a score of 1 to 3 points were enrolled in the group: • 0 points: no neurological deficits with normal activity; • 1 point: inability to fully extend the contralateral forepaw; • 2 points: the animal appears to turn in circles when crawling; • 3 points: the animal tends to lean to the hemiplegic side; • 4 points: the animal cannot walk spontaneously or loses consciousness. 1.4 Assessment of Short-Term Neurological Function
The neurological function of rats was comprehensively evaluated with Garcia score and beam balance test 24 hours after modeling. The criteria of Garcia score are shown in Table 1, which evaluates the movement, sensation, climbing and limb symmetry of the rats with the score range of 3 to 18 points. The lower the score, the more severe the neurological injury. The criteria of the beam balance test are shown in Table 2, which evaluated the proprioception and body coordination of rats with the score range of 0 to 6 points. The higher the score, the more severe the neurological injury. Scoring was done independently by a technician blinded to the modeling and drug administration.

Series [2] has as its system PC12 cells. As to the kind of experiment: Oxyhemoglobin-damaged PC12 cells, MTT. The format is cell-based. The settings on record: α-asarone emulsion 1, 5, 10, 25, 50 μM pre-incubated 2 hours, 6 μM oxyhemoglobin 24 hours. The protocol:
PC12 cells in the logarithmic phase of growth were seeded in a 96-well plate (1×10^4 cells/100 μL/well) with the marginal wells filled with sterile PBS, and cultured with complete culture medium at 37° C. with 5% CO2 for 24 hours until the cells completely adhered to the wall. The supernatant was discarded followed by oxyhemoglobin incubation at 37° C. with 5% CO2 for 24 hours with final concentrations of 0 μM, 4 μM, 6 μM, 8 μM and 10 μM, respectively. Subsequently, 10 μL MTT (5 mg/mL) was added into each well and incubated at 37° C. with 5% CO2 for 4 hours. Then, the supernatant was discarded, the formazan was dissolved with 100 μL DMSO, and the optical density (OD) was gauged at 570 nm by a microplate reader after incubation at 37° C. for 15 minutes (500 r/min) to calculate the cell viability. According to the formula “fold of cell abnormal proliferation=[(average absorbance value of the experimental group−average absorbance value of zero-adjusting well)/(average absorbance value of the control group−average absorbance value of zero-adjusting well)”, 6 μM oxyhemoglobin was screened out for following in vitro pharmacodynamic experiment since it produced a maximum of 1.5-fold abnormal cell proliferation compared to the control group. […]

The nature of series [3]: Toxic and side effects observed during all the experiments. The series is classed as in vivo. Conditions: during all the experiments of the disclosure.
Setting [4] is: group H, α-asarone emulsion injection 30 mg/kg tail vein.
[5] abbreviates: group L, α-asarone emulsion injection 7.5 mg/kg tail vein.
Where [6] appears, read: group M, α-asarone emulsion injection 15 mg/kg tail vein.

Consider `C/C=C/c1cc(OC)c(OC)cc1OC` [α-asarone, trans-2,4,5-trimethoxy-1-propenylbenzene], for which the Beam balance score in series [1] (setting [4]) stood at 3.31; in series [1] (setting [5]), 3.16; in series [1] (setting [6]), 3.09. Besides, the Garcia score in series [1] (setting [4]) is recorded as 10.01; in series [1] (setting [5]), 10.60; in series [1] (setting [6]) it was 10.68. Further, the “curative effect compared with group V (vinpocetine) and group N (nimodipine)” value in series [1] (groups L and M, 7.5 and 15 mg/kg) is listed as “better”. In addition, the “abnormal increase of cell vitality caused by oxyhemoglobin” value in series [2] was “significantly reduced”. For the same compound, in series [3], the “toxic and side effects” value is “no obvious toxic and side effects”.

The values above are taken from US12636260B2, “Application of α-asarone in preparation of medicine for preventing or treating hemorrhagic stroke” (CHENGDU XINRUI TAIKANG TECHNOLOGY CO., LTD., priority 2021, dated 2026).
